#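 Five compound concentrations were applied to cells in 96-well plates for 48 hours; endpoints were derived by simple linear interpolation of the resulting dose-response curve. Abbreviation: GI50, concentration required for 50% inhibition of growth.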 Active and inactive are the calls of the source. Rule as the data show it: active = GI50 up to about 1.1 µM and inactive = higher.
# Key:
# Assay in all cases: growth of human tumour cells (NCI), 48 h
# SK-MEL-28 = tested on: SK-MEL-28
# KM-20L2 = tested on: KM-20L2
# KM12 = tested on: KM12
# UACC-62 = tested on: UACC-62
# SW-620 = tested on: SW-620
# SK-MEL-2 = tested on: SK-MEL-2
# SK-MEL-5 = tested on: SK-MEL-5
# CCRF-CEM = tested on: CCRF-CEM
# OVCAR-8 = tested on: OVCAR-8
# SNB-78 = tested on: SNB-78
# SNB-75 = tested on: SNB-75
# NCI-H23 = tested on: NCI-H23
# HCT-15 = tested on: HCT-15
# DMS-114 = tested on: DMS-114
# UACC-257 = tested on: UACC-257
# OVCAR-4 = tested on: OVCAR-4
# HT-29 = tested on: HT-29
# IGROV-1 = tested on: IGROV-1
# HL-60 = tested on: HL-60
# SF-539 = tested on: SF-539
# A498 = tested on: A498
# NCI-H460 = tested on: NCI-H460
# CAKI-1 = tested on: CAKI-1
# SF-268 = tested on: SF-268
# HOP-92 = tested on: HOP-92
# TK-10 = tested on: TK-10
# HCT-116 = tested on: HCT-116
# U-251 = tested on: U-251
# NCI-H226 = tested on: NCI-H226
# HOP-18 = tested on: HOP-18
# M19-MEL = tested on: M19-MEL
# LOX IMVI = tested on: LOX IMVI
# OVCAR-5 = tested on: OVCAR-5
# MOLT-4 = tested on: MOLT-4
# OVCAR-3 = tested on: OVCAR-3
# DMS-273 = tested on: DMS-273
# LXFL 529 = tested on: LXFL 529
# M14 = tested on: M14
# SK-OV-3 = tested on: SK-OV-3
# 786-0 = tested on: 786-0
# DLD-1 = tested on: DLD-1
# COLO 205 = tested on: COLO 205
# SF-295 = tested on: SF-295
# EKVX = tested on: EKVX
# RXF 631 = tested on: RXF 631
# XF498 = tested on: XF498
# K562 = tested on: K562
# A549 = tested on: A549
# ACHN = tested on: ACHN
# SN12C = tested on: SN12C
# SNB-19 = tested on: SNB-19
# RPMI-8226 = tested on: RPMI-8226
# RXF 393 = tested on: RXF 393
# Malme-3M = tested on: Malme-3M
# HOP-62 = tested on: HOP-62
# UO-31 = tested on: UO-31
# SR = tested on: SR
# HCC 2998 = tested on: HCC 2998
# NCI-H522 = tested on: NCI-H522
smiles,measurement,setting,value
COc1ccc2nc(C(=O)c3ccccc3)c(C)cc2c1,GI50,SK-MEL-28,3.91 µM (inactive)
same,GI50,KM-20L2,3.18 µM (inactive)
same,GI50,KM12,6.58 µM (inactive)
same,GI50,UACC-62,5.26 µM (inactive)
same,GI50,SW-620,2.81 µM (inactive)
same,GI50,SK-MEL-2,6.27 µM (inactive)
same,GI50,SK-MEL-5,3.15 µM (inactive)
same,GI50,CCRF-CEM,4.2 µM (inactive)
same,GI50,OVCAR-8,5.31 µM (inactive)
same,GI50,SNB-78,13.2 µM (inactive)
same,GI50,SNB-75,2.96 µM (inactive)
same,GI50,NCI-H23,3.71 µM (inactive)
same,GI50,HCT-15,3.3 µM
same,GI50,DMS-114,3.22 µM (inactive)
same,GI50,UACC-257,4.14 µM (inactive)
same,GI50,OVCAR-4,97.1 µM (inactive)
same,GI50,HT-29,3.59 µM (inactive)
same,GI50,IGROV-1,> 29.2 µM (inactive)
same,GI50,HL-60,3.38 µM (inactive)
same,GI50,SF-539,3.05 µM (inactive)
same,GI50,A498,2.74 µM (inactive)
same,GI50,NCI-H460,7.24 µM (inactive)
same,GI50,CAKI-1,7.91 µM (inactive)
same,GI50,SF-268,6.76 µM (inactive)
same,GI50,HOP-92,7.13 µM (inactive)
same,GI50,TK-10,11.1 µM (inactive)
same,GI50,HCT-116,4.63 µM (inactive)
same,GI50,U-251,3.5 µM (inactive)
same,GI50,NCI-H226,23.9 µM (inactive)
same,GI50,HOP-18,> 26.9 µM (inactive)
same,GI50,M19-MEL,7.82 µM (inactive)
same,GI50,LOX IMVI,5.43 µM (inactive)
same,GI50,OVCAR-5,33.9 µM (inactive)
same,GI50,MOLT-4,5.02 µM (inactive)
same,GI50,OVCAR-3,10.3 µM (inactive)
same,GI50,DMS-273,3.08 µM (inactive)
same,GI50,LXFL 529,9.25 µM (inactive)
same,GI50,M14,3.74 µM (inactive)
same,GI50,SK-OV-3,3.83 µM (inactive)
same,GI50,786-0,7.03 µM (inactive)
same,GI50,DLD-1,4.84 µM (inactive)
same,GI50,COLO 205,5.93 µM (inactive)
same,GI50,SF-295,2.81 µM (inactive)
same,GI50,EKVX,5.26 µM (inactive)
same,GI50,RXF 631,8.18 µM (inactive)
same,GI50,XF498,3.68 µM (inactive)
same,GI50,K562,0.859 µM (active)
same,GI50,A549,6.28 µM (inactive)
same,GI50,ACHN,10 µM (inactive)
same,GI50,SN12C,6.84 µM (inactive)
same,GI50,SNB-19,9.16 µM (inactive)
same,GI50,RPMI-8226,6.61 µM (inactive)
same,GI50,RXF 393,2.7 µM (inactive)
same,GI50,Malme-3M,2.94 µM (inactive)
same,GI50,HOP-62,6.47 µM (inactive)
same,GI50,UO-31,12.9 µM (inactive)
same,GI50,SR,2.81 µM (inactive)
same,GI50,HCC 2998,6.01 µM (inactive)
same,GI50,NCI-H522,1.88 µM (inactive)
